Literature values as cited in patent US20080076825A1, “Novel Crystalline Forms of Entacapone and Production Thereof” (priority 2003, published 2008).

What was measured:
[1] = commercially available entacapone
Parkinson's disease = conditions: in combination with levodopa and a decarboxylase inhibitor; by lengthening the dosage interval and/or reducing the single dose

bioavailability [1]: 35%
Structure (SMILES): CCN(CC)C(=O)/C(C#N)=C/c1cc(O)c(O)c([N+](=O)[O-])c1 [entacapone, (E)-N,N-diethyl-2-cyano-3-(3,4-dihydroxy-5-nitrophenyl)acrylamide]
reduction of the amount of L-dopa to be administered (Parkinson's disease): 10-30%
